Tests used:
Assay in all cases: Substrate hydrolysis on Columbia agar
K. oxytoca = type: cell-based; conditions: 300 mg/l, 18 hours
C. diversus = type: cell-based; conditions: 300 mg/l, 18 hours
Serratia marcescens = type: cell-based; conditions: Serratia marcescens NCTC 10211; 300 mg/l; 18 hours
Serratia spp. = type: cell-based; conditions: 300 mg/l, 18 hours
Salmonella typhimurium = type: cell-based; conditions: Salmonella typhimurium NCTC 74; 300 mg/l; 18 hours
Salmonella typhi = type: cell-based; conditions: Salmonella typhi NCTC 8385; 300 mg/l; 18 hours
Salmonella oranienburg = type: cell-based; conditions: Salmonella oranienburg SAX 56; 300 mg/l; 18 hours
Salmonella panama = type: cell-based; conditions: Salmonella panama SAX 58; 300 mg/l; 18 hours
A. baumanii = type: cell-based; conditions: A. baumanii ATCC 19606; 300 mg/l; 18 hours
A. calcoaceticus = type: cell-based; conditions: A. calcoaceticus ATCC 7844; 300 mg/l; 18 hours
P. aeruginosa = type: cell-based; conditions: 300 mg/l, 18 hours
[1] = system: Providencia alcalifaciens; type: cell-based; conditions: 300 mg/l, 18 hours
P. vulgaris = type: cell-based; conditions: 300 mg/l, 18 hours
Vibrio cholerae = type: cell-based; conditions: 300 mg/l, 18 hours
Vibrio metschnikovii = type: cell-based; conditions: Vibrio metschnikovii NCTC 8443; 300 mg/l; 18 hours
Streptococcus salivarius = type: cell-based; conditions: Streptococcus salivarius NCTC 8618; 300 mg/l; 18 hours
Streptococcus gordonii = type: cell-based; conditions: Streptococcus gordonii NCTC 7865; 300 mg/l; 18 hours
Streptococcus pneumoniae = type: cell-based; conditions: Streptococcus pneumoniae NCTC 7465; 300 mg/l; 18 hours
[2] = system: Haemolytic streptococcus G; type: cell-based; conditions: 300 mg/l, 18 hours
C. diphtheriae = type: cell-based, Corynebacterium diphtheriae; conditions: 300 mg/l, 18 hours
[3] = system: Staphylococcus haemolyticus; type: cell-based; conditions: 300 mg/l, 18 hours
Enterococcus faecalis = type: cell-based; conditions: 300 mg/l, 18 hours

Substance: 3′,4′-dihydroxyflavone-4′-β-D-glucopyranoside sodium salt [DHF-glucoside]
- Hydrolysis by Gram negative bacteria (K. oxytoca; K. oxytoca KOX 1): +
- Hydrolysis by Gram negative bacteria (K. oxytoca; K. oxytoca KOX 2): +
- Hydrolysis by Gram negative bacteria (C. diversus; C. diversus CDI 1): −
- Hydrolysis by Gram negative bacteria (C. diversus; C. diversus CDI 2): −
- Hydrolysis by Gram negative bacteria (Serratia marcescens): +
- Hydrolysis by Gram negative bacteria (Serratia spp.; Serratia spp. SEX 1): +
- Hydrolysis by Gram negative bacteria (Serratia spp.; Serratia spp. SEX 2): +
- Hydrolysis by Gram negative bacteria (Salmonella typhimurium): −
- Hydrolysis by Gram negative bacteria (Salmonella typhi): −
- Hydrolysis by Gram negative bacteria (Salmonella oranienburg): −
- Hydrolysis by Gram negative bacteria (Salmonella panama): −
- Hydrolysis by Gram negative bacteria (A. baumanii): −
- Hydrolysis by Gram negative bacteria (A. calcoaceticus): −
- Hydrolysis by Gram negative bacteria (P. aeruginosa; P. aeruginosa ATCC 10145): −
- Hydrolysis by Gram negative bacteria (P. aeruginosa; P. aeruginosa NCTC 10662): −
- Hydrolysis by Gram negative bacteria ([1]; Providencia alcalifaciens PAL 1): +
- Hydrolysis by Gram negative bacteria ([1]; Providencia alcalifaciens PAL 2): +
- Hydrolysis by Gram negative bacteria (P. vulgaris; P. vulgaris PVU 2): −
- Hydrolysis by Gram negative bacteria (P. vulgaris; P. vulgaris PVU 4): −
- Hydrolysis by Gram negative bacteria (P. vulgaris; P. vulgaris PVU 5): −
- Hydrolysis by Gram negative bacteria (Vibrio cholerae; Vibrio cholera NCTC 6585): −
- Hydrolysis by Gram negative bacteria (Vibrio cholerae; Vibrio cholera NCTC 7270): −
- Hydrolysis by Gram negative bacteria (Vibrio cholerae; Vibrio cholera NCTC 8021): −
- Hydrolysis by Gram negative bacteria (Vibrio cholerae; Vibrio cholera NCTC 10732): −
- Hydrolysis by Gram negative bacteria (Vibrio cholerae; Vibrio cholera NCTC 12945): −
- Hydrolysis by Gram negative bacteria (Vibrio cholerae; Vibrio cholerae NCTC 7254): −
- Hydrolysis by Gram negative bacteria (Vibrio cholerae; Vibrio cholerae NCTC 8042): −
- Hydrolysis by Gram negative bacteria (Vibrio cholerae; Vibrio cholerae NCTC 10255): −
- Hydrolysis by Gram negative bacteria (Vibrio cholerae; Vibrio cholerae NCTC 10954): −
- Hydrolysis by Gram negative bacteria (Vibrio metschnikovii): −
- Hydrolysis by Gram positive organisms (Streptococcus salivarius): ++
- Hydrolysis by Gram positive organisms (Streptococcus gordonii): −
- Hydrolysis by Gram positive organisms (Streptococcus pneumoniae): −
- Hydrolysis by Gram positive organisms ([2]; Haemolytic streptococcus G 1): −
- Hydrolysis by Gram positive organisms ([2]; Haemolytic streptococcus G 2): −
- Hydrolysis by Gram positive organisms ([2]; Haemolytic streptococcus G 3): −
- Hydrolysis by Gram positive organisms (C. diphtheriae; C. diphtheriae NCTC 3987): −
- Hydrolysis by Gram positive organisms (C. diphtheriae; C. diphtheriae NCTC 10356): −
- Hydrolysis by Gram positive organisms (C. diphtheriae; C. diphtheriae NCTC 11397): −
- Hydrolysis by Gram positive organisms (C. diphtheriae; Corynebacterium diphtheria NEQAS): −
- Hydrolysis by Gram positive organisms ([3]; Staphylococcus haemolyticus RB 66): −
- Hydrolysis by Gram positive organisms ([3]; Staphylococcus haemolyticus RB 67): −
- Hydrolysis by Gram positive organisms ([3]; Staphylococcus haemolyticus RB 68): −
- Hydrolysis by Gram positive organisms ([3]; Staphylococcus haemolyticus RB 69): −
- Hydrolysis by Gram positive organisms ([3]; Staphylococcus haemolyticus RB 70): −
- Hydrolysis by Gram positive organisms (Enterococcus faecalis; Enterococcus faecalis 1): ++
- Hydrolysis by Gram positive organisms (Enterococcus faecalis; Enterococcus faecalis 2): ++
- Hydrolysis by Gram positive organisms (Enterococcus faecalis; Enterococcus faecalis 3): ++
- Hydrolysis by Gram positive organisms (Enterococcus faecalis; Enterococcus faecalis 4): ++
- Hydrolysis by Gram positive organisms (Enterococcus faecalis; Enterococcus faecalis 5): ++
- Hydrolysis by Gram positive organisms (Enterococcus faecalis; Enterococcus faecalis 6): ++
- Hydrolysis by Gram positive organisms (Enterococcus faecalis; Enterococcus faecalis 7): ++

From US7531646B2, “β-D-ribosidase activity indicators with a chromogenic substrate” (priority 2001, dated 2009)
